Assay results from PubChem BioAssay (NCI).
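Five concentrations, 48 hours, 96-well plates. TGI marks complete inhibition of growth.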

Legend:
Assay in all cases: inhibition of tumour cell growth, NCI panel, 48 h
786-0 renal = test system: 786-0 renal
A498 renal = test system: A498 renal
A549 NSCLC = test system: A549 NSCLC
ACHN renal = test system: ACHN renal
CAKI-1 renal = test system: CAKI-1 renal
CCRF-CEM leukemia = test system: CCRF-CEM leukemia
COLO 205 colon = test system: COLO 205 colon
DMS 114 small cell lung = test system: DMS 114 small cell lung
DMS 273 small cell lung = test system: DMS 273 small cell lung
EKVX NSCLC = test system: EKVX NSCLC
HCT-15 colon = test system: HCT-15 colon
HL-60(TB) leukemia = test system: HL-60(TB) leukemia
HOP-18 NSCLC = test system: HOP-18 NSCLC
HOP-62 NSCLC = test system: HOP-62 NSCLC
HOP-92 NSCLC = test system: HOP-92 NSCLC
HT29 colon = test system: HT29 colon
IGROV1 ovarian = test system: IGROV1 ovarian
K-562 leukemia = test system: K-562 leukemia
KM12 colon = test system: KM12 colon
KM20L2 colon = test system: KM20L2 colon
LOX IMVI melanoma = test system: LOX IMVI melanoma
LXFL 529 NSCLC = test system: LXFL 529 NSCLC
M14 melanoma = test system: M14 melanoma
M19-MEL melanoma = test system: M19-MEL melanoma
MALME-3M melanoma = test system: MALME-3M melanoma
MOLT-4 leukemia = test system: MOLT-4 leukemia
NCI-H23 lung = test system: NCI-H23 lung
NCI-H460 lung = test system: NCI-H460 lung
NCI-H522 lung = test system: NCI-H522 lung
OVCAR-3 ovarian = test system: OVCAR-3 ovarian
OVCAR-4 ovarian = test system: OVCAR-4 ovarian
OVCAR-5 ovarian = test system: OVCAR-5 ovarian
OVCAR-8 ovarian = test system: OVCAR-8 ovarian
RPMI-8226 leukemia = test system: RPMI-8226 leukemia
RXF 393 renal = test system: RXF 393 renal
RXF-631 renal = test system: RXF-631 renal
SF-268 CNS = test system: SF-268 CNS
SF-295 CNS = test system: SF-295 CNS
SF-539 CNS = test system: SF-539 CNS
SK-MEL-2 melanoma = test system: SK-MEL-2 melanoma
SK-MEL-28 melanoma = test system: SK-MEL-28 melanoma
SK-MEL-5 melanoma = test system: SK-MEL-5 melanoma
SK-OV-3 ovarian = test system: SK-OV-3 ovarian
SN12C renal = test system: SN12C renal
SNB-19 CNS = test system: SNB-19 CNS
SNB-75 CNS = test system: SNB-75 CNS
SW-620 colon = test system: SW-620 colon
TK-10 renal = test system: TK-10 renal
U251 CNS = test system: U251 CNS
UACC-257 melanoma = test system: UACC-257 melanoma
UACC-62 melanoma = test system: UACC-62 melanoma
UO-31 renal = test system: UO-31 renal
XF 498 CNS = test system: XF 498 CNS
DLD-1 colon = test system: DLD-1 colon
HCC-2998 colon = test system: HCC-2998 colon
HCT-116 colon = test system: HCT-116 colon
SNB-78 CNS = test system: SNB-78 CNS
NCI-H226 lung = test system: NCI-H226 lung

Measured: TGI

CN1c2ccccc2NC(CC(=O)O)C2CC=CN21 (stereo not drawn)
> 100 µM: 786-0 renal | A498 renal | A549 NSCLC | ACHN renal | CAKI-1 renal | CCRF-CEM leukemia | COLO 205 colon | DMS 114 small cell lung | DMS 273 small cell lung | EKVX NSCLC | HCT-15 colon | HL-60(TB) leukemia | HOP-18 NSCLC | HOP-62 NSCLC | HOP-92 NSCLC | HT29 colon | IGROV1 ovarian | K-562 leukemia | KM12 colon | KM20L2 colon | LOX IMVI melanoma | LXFL 529 NSCLC | M14 melanoma | M19-MEL melanoma | MALME-3M melanoma | MOLT-4 leukemia | NCI-H23 lung | NCI-H460 lung | NCI-H522 lung | OVCAR-3 ovarian | OVCAR-4 ovarian | OVCAR-5 ovarian | OVCAR-8 ovarian | RPMI-8226 leukemia | RXF 393 renal | RXF-631 renal | SF-268 CNS | SF-295 CNS | SF-539 CNS | SK-MEL-2 melanoma | SK-MEL-28 melanoma | SK-MEL-5 melanoma | SK-OV-3 ovarian | SN12C renal | SNB-19 CNS | SNB-75 CNS | SW-620 colon | TK-10 renal | U251 CNS | UACC-257 melanoma | UACC-62 melanoma | UO-31 renal | XF 498 CNS

S=C(Nc1ccccc1)Nc1ccccc1SC(/C=C/NNC1=NC(c2ccccc2)C(c2ccccc2)=NN1)c1ccccc1 (stereo not drawn)
44.6 µM: RXF 393 renal
84.2 µM: HOP-92 NSCLC
64.5 µM: HOP-62 NSCLC
> 100 µM: 786-0 renal | A498 renal | A549 NSCLC | ACHN renal | CAKI-1 renal | CCRF-CEM leukemia | COLO 205 colon | DLD-1 colon | DMS 114 small cell lung | DMS 273 small cell lung | EKVX NSCLC | HCC-2998 colon | HCT-116 colon | HCT-15 colon | HL-60(TB) leukemia | HT29 colon | IGROV1 ovarian | K-562 leukemia | KM12 colon | KM20L2 colon | LOX IMVI melanoma | M14 melanoma | M19-MEL melanoma | MALME-3M melanoma | MOLT-4 leukemia | NCI-H460 lung | NCI-H522 lung | OVCAR-3 ovarian | OVCAR-4 ovarian | OVCAR-5 ovarian | OVCAR-8 ovarian | RPMI-8226 leukemia | RXF-631 renal | SF-268 CNS | SF-295 CNS | SF-539 CNS | SK-MEL-2 melanoma | SK-MEL-28 melanoma | SK-MEL-5 melanoma | SK-OV-3 ovarian | SN12C renal | SNB-19 CNS | SNB-78 CNS | SW-620 colon | TK-10 renal | U251 CNS | UACC-62 melanoma | XF 498 CNS

COc1ccc(OC)c2[nH]c(Sc3c([N+](=O)[O-])ncn3C)nc12
64.7 µM: OVCAR-4 ovarian
88.3 µM: M14 melanoma
30.1 µM: UACC-257 melanoma
47.4 µM: NCI-H226 lung
44.4 µM: HOP-92 NSCLC
50.1 µM: OVCAR-8 ovarian
45.6 µM: OVCAR-3 ovarian
85.7 µM: IGROV1 ovarian
68.6 µM: SF-268 CNS
54.6 µM: SK-MEL-28 melanoma
42.6 µM: CAKI-1 renal
34.1 µM: UACC-62 melanoma
43.5 µM: XF 498 CNS
38.8 µM: HCT-15 colon
37.8 µM: SN12C renal
51.6 µM: HCT-116 colon
97.3 µM: A498 renal
48.8 µM: DLD-1 colon
35.9 µM: RXF-631 renal
34.2 µM: SF-539 CNS
60.1 µM: RXF 393 renal
35.4 µM: SK-MEL-5 melanoma
51.2 µM: EKVX NSCLC
26.6 µM: COLO 205 colon
27.3 µM: LXFL 529 NSCLC
> 100 µM: 786-0 renal | A549 NSCLC | ACHN renal | HOP-62 NSCLC | HT29 colon | KM12 colon | LOX IMVI melanoma | NCI-H460 lung | OVCAR-5 ovarian | SF-295 CNS | SK-OV-3 ovarian | SNB-75 CNS | SNB-78 CNS | SW-620 colon | U251 CNS
29.3 µM: MALME-3M melanoma
41.3 µM: DMS 273 small cell lung
38.4 µM: HCC-2998 colon
35.1 µM: DMS 114 small cell lung
61.6 µM: TK-10 renal
51.9 µM: NCI-H23 lung
60.6 µM: KM20L2 colon
93.5 µM: UO-31 renal
50.2 µM: M19-MEL melanoma
